From patent publication US20250326715A1, “NOVEL MAIN PROTEASE INHIBITORS, AND COMPOSITIONS AND METHODS THEREOF” (University of Massachusetts, priority 2023, published 2025)
Where two headings read alike, the source gives them in different places.

Legend:
SARS-CoV-2 M^Pro [1] = molecular target: T1, SARS-CoV-2 M^Pro (Severe acute respiratory syndrome coronavirus 2, UniProt P0DTD1); experiment: Determination of IC50 values for SARS-CoV-2 M^Pro (fluorogenic peptide substrate, end-point); format: biochemical
SARS-CoV-2 M^Pro [2] = molecular target: T1, SARS-CoV-2 M^Pro; experiment: Determination of KI values for SARS-CoV-2 M^Pro (initial velocity, competitive inhibition); format: biochemical
SARS-CoV-2 PL^Pro = SARS-CoV-2 PL^Pro (Severe acute respiratory syndrome coronavirus 2, UniProt P0DTD1); experiment: Determination of IC50 values for SARS-CoV-2 PL^Pro (Z-RLRGG-AMC substrate); format: biochemical
Cathepsin L = molecular target: T2, Cathepsin L (Homo sapiens, UniProt P07711); experiment: Cathepsin L inhibition assay kit (Abcam), IC50 and kinact/KI; format: biochemical; details: for IC50: 20 min pretreatment; for kinact/KI: read-out: Cathepsin L kinact/KI
T2 construct: purchased Abcam ab197012
T2 sequence (P07711 114-333): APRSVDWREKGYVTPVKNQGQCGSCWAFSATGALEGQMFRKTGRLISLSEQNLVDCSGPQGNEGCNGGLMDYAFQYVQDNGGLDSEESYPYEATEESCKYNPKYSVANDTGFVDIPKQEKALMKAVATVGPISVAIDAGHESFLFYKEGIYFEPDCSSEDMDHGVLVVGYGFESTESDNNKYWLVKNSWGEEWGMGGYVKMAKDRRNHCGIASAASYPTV
Protocol: (§1) Determination of IC50 and kinact/KI values for Cathepsins L and B
IC50 and kinact/KI values of the inhibitors were determined using commercially available inhibition assay kits (Abcam) by following the manufacturer's protocol. […] The observed rates (kobs) were determined by fitting to a single-phase association equation. The resulting kobs values were plotted against the concentrations of inhibitor and the data were fit to equation 2 to derive the kinact/KI values,
using GraphPad Prism, where kinact is the maximal rate of inactivation, KI is the concentration of inhibitor that affords half-maximal inactivation, and [I] is the concentration of inhibitor. When kobs with [I] varied linearly, kinact/KI was determined from the slope of the line. All the experiments were performed in triplicate. […] Crystallization of M^Pro in Complex with Inhibitors

Cathepsin B = molecular target: T3, Cathepsin B (Homo sapiens, UniProt P07858); experiment: Cathepsin B inhibition assay kit (Abcam), IC50; format: biochemical; details: 20 min pretreatment
T3 construct: purchased Abcam ab185438
Protocol: as §1
IC50 and kinact/KI values of the inhibitors were determined using commercially available inhibition assay kits (Abcam) by following the manufacturer's protocol. For IC50 values, enzymes were pretreated with test inhibitor (0-50 μM) for 20 min prior to adding the fluorogenic substrate, and end-point fluorescence was recorded after 30 min. For the kinact/KI values, enzymes were treated with inhibitor and substrate simultaneously and increase in fluorescence was monitored over 60 min. The observed rates (kobs) were determined by fitting to a single-phase association equation. The resulting kobs values were plotted against the concentrations of inhibitor and the data were fit to equation 2 to derive the kinact/KI values,
using GraphPad Prism, where kinact is the maximal rate of inactivation, KI is the concentration of inhibitor that affords half-maximal inactivation, and [I] is the concentration of inhibitor. When kobs with [I] varied linearly, kinact/KI was determined from the slope of the line. All the experiments were performed in triplicate. All fluorescence measurements were taken at absorption/emission wavelength of 400/505 nm using an EnVision 2105 plate reader. Crystallization of M^Pro in Complex with Inhibitors

SARS-CoV-2 [3] = experiment: microbe, parasite or virus in culture; format: cell-based; details: for EC50: read-out: EC50, inhibition of SARS-CoV-2 infection; for IC50: hACE2 expressing A549 cells, read-out: IC50, block of SARS-CoV2 replication; for EC90: read-out: EC90, inhibition of SARS-CoV-2 infection
OC-43 = format: cell-based; details: A549-hACE2 cells
SARS-CoV-2 [4] = experiment: Antiviral activity in SARS-CoV-2-infected K18-hACE2 transgenic mice; format: in vivo; details: K18-ACE2 mice; for viral RNA loads and titers in lung tissue vs vehicle control: 72 h treatment; for inflammatory cytokines and chemokines (IFN-β, TNF-α, IL-1β, IL-6) in lung tissue: infected for 72 hours; for protection from SARS-CoV2-induced weight loss and lethality: intranasal 10 mg/kg once daily for 3 days starting 2 h prior to infection; for protection from SARS-CoV-2-induced weight loss and lethality: intraperitoneal 25 mg/kg twice daily for 5 days, post-infection; for histopathological analysis of lung tissue: treatment for 5 days
Description: For these studies, K18-hACE2 transgenic mice (K18-ACE2) were used that express human ACE2 under the control of the epithelial cell cytokeratin-18 (K18) promoter as this model provides robust SARS-CoV-2 infection.
All animal experiments were approved by the Institutional Animal Care Use Committees at the University of Massachusetts Chan Medical School. Animal were kept in a specific pathogen free (SPF) environment. Hemizygous K18-hACE2 C57BL/6J mice (strain: […] (K18-ACE2)2Prlmn/J) were obtained from The Jackson Laboratory. 8-12-week-old male and female mice were anesthetized with isoflurane and infected intranasally with 3×10^4 PFU of SARS-CoV-2. […] Mice were monitored daily for weight loss and survival. Lung samples were collected at indicated time points and placed in a bead homogenizer tube with 1 ml of DMEM+2% FBS for homogenization, then 100 μl of this mixture was placed in PBS for tittering or in 300 μl Trizol LS (Invitrogen) for RNA extraction. For histology, lungs were perfused with 10 U/mL Heparin, intratracheally inflated with 10% buffered-formalin and dissected from mice. Tissues were fixed in 4% paraformaldehyde overnight and embedded in 10% paraffin. Five micrometer thin sections were stained by H&E. Histomorphology, grading of histology scores and evaluation of inflammation of each H&E slide was evaluated by Applied Pathology Systems.

M^Pro [5] = molecular target: T4, M^Pro (Severe acute respiratory syndrome coronavirus 2, UniProt P0DTD1); experiment: Labelling of A549-hACE2 lysate spiked with recombinant M^Pro with SM144, competition by SM141 or SM142; format: binding, SARS-CoV-2; details: 250 nM M^Pro spiked, 2.5 μM SM144, 2.5-25 μM competitor
Protocol: A549-hACE2 cells were grown in the DMEM medium (supplemented with 10% heat-inactivated fetal bovine serum, 100 units/mL penicillin and 100 μg/mL streptomycin). Upon reaching ˜90% confluence, cells were collected using a cell scraper, harvested by centrifugation at 3,000 rpm for 5 min and were resuspended in 1×PBS supplemented with 1% NP-40. Then the cells were lysed using a probe sonicator and lysates were cleared by centrifugation at 21000 g for 15 min. Soluble proteins in the lysate were quantified by DC-assay (Bio-Rad).
A549-hACE2 lysate (2 mg/mL, 50 μL total) spiked with or without recombinant M^Pro (250 nM final) was treated with DTT (1 mM final) and various concentrations of SM144 (0-5 μM final). […] All these reactions were incubated at 25° C. for 30 min. Then TAMRA-N3 (100 μM), TCEP (1 mM), TBTA (0.3 mM) and freshly prepared copper (II) sulphate (4 mM) were added sequentially to the reaction mixture. The tubes were then gently tumbled at room temperature for 2 h. The precipitated proteins were collected by centrifugation at 5000 rpm for 6 min. The protein pellets were resuspended in 5×SDS-PAGE loading dye, heated at 95° C. for 10 min and separated by SDS-PAGE. Protein bands were visualized by recording in-gel fluorescence using a typhoon scanner (excitation/emission maxima ˜546/579 nm). All the experiments were performed in duplicate.

M^Pro [6] = molecular target: T4, M^Pro; format: binding
[7] = 12.5 nM M^Pro, 20 min preincubation, 30 μM substrate, read-out: M^Pro IC50
[8] = competitive inhibition, initial velocity, read-out: M^Pro Ki
[9] = 30 nM PL^Pro, 20 min preincubation, read-out: PL^Pro IC50
[10] = Severe acute respiratory syndrome coronavirus 2, A549-hACE2 cells
[11] = Severe acute respiratory syndrome coronavirus 2

Compound	IC50 (SARS-CoV-2 M^Pro [1]; [7]) [nM]	Ki (SARS-CoV-2 M^Pro [2]; [8]) [µM]	inhibition of papain-like protease (PL^Pro), in words (SARS-CoV-2 PL^Pro)	IC50 (SARS-CoV-2 PL^Pro; [9]) [µM]	IC50 (Cathepsin L) [nM]	kinact/KI (Cathepsin L) [M⁻¹ s⁻¹]	IC50 (Cathepsin B) [µM]	EC50 (SARS-CoV-2 [3]; [10]) [nM]	IC50 (SARS-CoV-2 [3]; [11]) [nM]	inhibition of OC-43, in words (OC-43)	viral RNA loads and titers in lung tissue vs vehicle control (SARS-CoV-2 [4])	inflammatory cytokines and chemokines (IFN-β, TNF-α, IL-1β, IL-6) in lung tissue (SARS-CoV-2 [4])	protection from SARS-CoV2-induced weight loss and lethality (SARS-CoV-2 [4])	protection from SARS-CoV-2-induced weight loss and lethality (SARS-CoV-2 [4])	histopathological analysis of lung tissue (SARS-CoV-2 [4])	labeling of M^Pro in spiked A549-hACE2 lysate / its inhibition (M^Pro [5])	also measured
CCOC(=O)C=CC(CC1CCNC1=O)NC(=O)C(Cc1ccccc1)NC(=O)C(Cc1ccc(F)cc1)NC(=O)OC(C)(C)C (stereo not drawn) [SM142]	1800	10	completely inactive	> 50	145	1830	40 ± 9	14.7	14.7	inhibit OC-43	remarkably lower	Reduced inflammatory cytokines and chemokines were detected	protects mice from SARS-CoV2-induced weight loss and lethality	protects K18-ACE2 mice from SARS-CoV-2-induced weight loss and lethality	significant reduction in lung inflammation and improved overall lung pathology	dose dependently inhibited	–
C#CCOCCC(=O)NC(Cc1ccc(F)cc1)C(=O)NC(Cc1ccccc1)C(=O)NC(C=CC(=O)OCC)CC1CCNC1=O (stereo not drawn) [SM144]	700	4.5	–	> 50	220	1000	> 50	–	–	–	–	–	–	–	–	selectively labels M^Pro in a dose-dependent manner	antiviral activity compared with SM141 and SM142 (SARS-CoV-2 [3]; A549-hACE2 cells): significantly lower antiviral activity than SM141 and SM142; limit of detection of M^Pro by the probe (M^Pro [6]; 5 μM SM144, TAMRA-azide, in-gel fluorescence): 5 pmol
CCOC(=O)C=CC(CC1CCNC1=O)NC(=O)C(Cc1ccccc1)NC(=O)C(N)Cc1ccccc1 (stereo not drawn) [SM141]	–	–	completely inactive	–	60	–	> 50	8.2	8.2	inhibit OC-43	remarkably lower	Reduced inflammatory cytokines and chemokines were detected	protects mice from SARS-CoV2-induced weight loss and lethality	protects K18-ACE2 mice from SARS-CoV-2-induced weight loss and lethality	significant reduction in lung inflammation and improved overall lung pathology	dose dependently inhibited	IC50 (SARS-CoV-2 M^Pro [1]): 900 nM; Ki (SARS-CoV-2 M^Pro [2]): 9 µM; IC50 (SARS-CoV-2 PL^Pro): > 50 µM; antiviral activity, in words (SARS-CoV-2 [3]; A549-hACE2 cells, 2 μM, 24 h): almost completely blocks viral infection; EC90 (SARS-CoV-2 [3]; A549-hACE2 cells): 22 nM; EC90 (SARS-CoV-2 [3]; [10]): 22.1 nM; in vivo antiviral efficacy, SM141 compared with SM142 (SARS-CoV-2 [4]; survival): better antiviral efficacy; inhibition of SM144 labeling of recombinant M^Pro (M^Pro [6]; 0-50 μM competitor, 5 μM SM144): competitively inhibited
